Data published in article PMC11785709, “Angelica gigas Nakai (Korean Dang-gui) Root Alcoholic Extracts in Health Promotion and Disease Therapy – active Phytochemicals and In Vivo Molecular Targets” (Pharmaceutical Research, 2025).
pEC50, pIC50, pKd: −log10 of the molar value. Values joined by “and” are separate entries in the source; they are usually repeats but may differ in a detail not shown here. Identical values can stand only once. Like-named read-outs stand apart in the source and are kept apart here.

Tests used:
[1] = system: human MAO-A; set-up: method as in PMID 28109809; settings: cited from earlier work; for pIC50: read-out: MAO-A inhibition IC50
[2] = biological target: T1, ROCK1 (Homo sapiens, UniProt Q13464); assay: Reaction Biology kinase activity inhibition; format: biochemical; set-up: purchased Reaction Biology (Malvern, PA)
Excerpt: (§1) The second screening was the Reaction Biology® (Malvern, PA) kinase activity inhibition tests, which screened for more than 600 protein kinases and lipid kinases, using miniaturized radioisotope-based assay platform with γ-^33P-ATP, followed by confirmation with IC50 kinase profiling service with 5 concentrations of test compound (i.e., DOH and DA) with curve fitting.

[3] = biological target: T2, ROCK2 (Homo sapiens, UniProt O75116); assay: Reaction Biology kinase activity inhibition; format: biochemical; set-up: purchased Reaction Biology (Malvern, PA)
Excerpt: as §1

[4] = biological target: T3, DDR1 (Homo sapiens, UniProt Q08345); assay: Reaction Biology kinase activity inhibition; format: biochemical; settings: for pIC50: validation titration, 6.25 to 100 µM, Hotspot confirmation
T3 construct: purchased Reaction Biology (Malvern, PA)
Excerpt: as §1

[5] = biological target: T4, PDK2/PDHK2 (Homo sapiens, UniProt Q15119); assay: Reaction Biology kinase activity inhibition; format: biochemical; settings: for pIC50: validation titration, 6.25 to 100 µM, Hotspot confirmation
T4 construct: purchased Reaction Biology (Malvern, PA)
Excerpt: as §1

[6] = biological target: T5, BRSK2 (Homo sapiens, UniProt Q8IWQ3); assay: Reaction Biology kinase activity inhibition; format: biochemical; settings: for pIC50: validation titration, 6.25 to 100 µM, Hotspot confirmation
T5 construct: purchased Reaction Biology (Malvern, PA)
T5 sequence (Q8IWQ3 1-736): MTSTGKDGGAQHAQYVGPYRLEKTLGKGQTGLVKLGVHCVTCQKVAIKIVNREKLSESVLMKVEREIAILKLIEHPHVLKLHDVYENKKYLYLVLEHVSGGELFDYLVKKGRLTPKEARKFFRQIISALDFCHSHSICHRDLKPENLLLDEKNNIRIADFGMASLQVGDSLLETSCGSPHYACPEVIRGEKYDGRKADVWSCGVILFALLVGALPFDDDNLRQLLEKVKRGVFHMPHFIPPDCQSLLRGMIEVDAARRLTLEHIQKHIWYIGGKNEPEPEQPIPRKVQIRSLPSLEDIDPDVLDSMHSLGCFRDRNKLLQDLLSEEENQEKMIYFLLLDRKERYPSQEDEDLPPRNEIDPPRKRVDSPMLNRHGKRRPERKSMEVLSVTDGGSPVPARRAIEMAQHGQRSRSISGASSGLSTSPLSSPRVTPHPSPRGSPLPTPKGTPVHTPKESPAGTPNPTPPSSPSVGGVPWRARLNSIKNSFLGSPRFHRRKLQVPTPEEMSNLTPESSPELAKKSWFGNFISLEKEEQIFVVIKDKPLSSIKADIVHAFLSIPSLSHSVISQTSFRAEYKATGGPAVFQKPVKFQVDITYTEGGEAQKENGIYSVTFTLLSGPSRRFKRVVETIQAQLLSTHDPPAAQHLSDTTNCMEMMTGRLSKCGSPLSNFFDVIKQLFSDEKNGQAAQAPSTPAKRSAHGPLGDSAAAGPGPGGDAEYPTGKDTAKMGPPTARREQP
Excerpt: as §1

[7] = biological target: T6, CAMKK1 (Homo sapiens, UniProt Q8N5S9); assay: Reaction Biology kinase activity inhibition; format: biochemical; settings: for pIC50: validation titration, 6.25 to 100 µM, Hotspot confirmation
T6 construct: purchased Reaction Biology (Malvern, PA)
Excerpt: as §1

[8] = biological target: T1, ROCK1; assay: KINOMEscan competition binding; set-up: purchased Eurofins DiscoverX (KINOMEscan)
Protocol: (§2) Two distinct platforms were used for initial screening with 50 µM DOH vs. DMSO vehicle. The first was the Eurofins DiscoverX KINOMEscan® (Freemont, CA USA) profiling platform, which employed a proprietary active site-directed competition binding assay to quantitatively measure interactions between a test compound (i.e., DOH) and 468 human protein kinases and disease relevant mutant variants either directly (sterically) or indirectly (allosterically) to prevent a kinase binding to its immobilized substrate (ligand). The top 8 hits were subjected to secondary screening verification by DOH concentration-titration for dissociation constant (Kd). For ROCK1 and ROCK2, DA was chosen for Kd titration as well, because it is ~ 10 × higher than D in peripheral circulation due to its resistance to hydrolysis by carboxyesterase-2 (Fig. 1C).

[9] = biological target: T2, ROCK2; assay: KINOMEscan competition binding; set-up: purchased Eurofins DiscoverX (KINOMEscan)
Protocol: as §2

[10] = biological target: T7, MKNK2 (Homo sapiens, UniProt Q9HBH9); assay: KINOMEscan competition binding; settings: for pKd: validation Kd titration, 0.003 to 50 µM, two values per cell
T7 construct: purchased Eurofins DiscoverX (KINOMEscan)
Protocol: as §2

[11] = biological target: T8, DRAK2 (STK17B) (Homo sapiens, UniProt O94768); assay: KINOMEscan competition binding; settings: for pKd: validation Kd titration, 0.003 to 50 µM, two values per cell
T8 construct: purchased Eurofins DiscoverX (KINOMEscan)
T8 sequence (O94768 1-372): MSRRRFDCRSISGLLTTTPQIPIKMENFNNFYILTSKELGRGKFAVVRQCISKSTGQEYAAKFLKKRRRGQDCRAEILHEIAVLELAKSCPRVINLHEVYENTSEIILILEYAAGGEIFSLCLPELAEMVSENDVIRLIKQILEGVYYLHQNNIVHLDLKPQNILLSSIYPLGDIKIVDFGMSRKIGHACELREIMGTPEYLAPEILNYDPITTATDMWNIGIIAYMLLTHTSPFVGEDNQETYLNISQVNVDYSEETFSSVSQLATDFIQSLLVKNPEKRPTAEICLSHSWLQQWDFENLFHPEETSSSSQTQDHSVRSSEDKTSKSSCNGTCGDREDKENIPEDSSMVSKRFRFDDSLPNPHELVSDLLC
Protocol: as §2

[12] = system: AR; ERα; settings: cited from earlier work; for mode of action on AR and ERα: responsive cancer cell culture models
[13] = system: MAO-B; set-up: method as in PMID 28109809; settings: screened at 10 μM; cited from earlier work
[14] = Reaction Biology, Inc, Table 1, read-out: ROCK1 IC50
[15] = validation titration, 6.25 to 100 µM, Hotspot confirmation, read-out: IC50
[16] = Reaction Biology, Inc, Table 1, read-out: ROCK2 IC50
[17] = Eurofins DiscoveRx, Table 1, read-out: ROCK1 Kd
[18] = validation Kd titration, 0.003 to 50 µM, two values per cell, read-out: Kd
[19] = Eurofins DiscoveRx, Table 1, read-out: ROCK2 Kd
[20] = initial screening, DOH (50 µM), Data 1 and Data 2
[21] = initial screening, DOH (50 µM), Data 1 and Data 2, read-out: % Enzyme Activity (relative to DMSO controls)
[22] = initial screening, DOH 50 µM, read-out: Substrate bound % Control

T3 sequence (Q08345 19-913): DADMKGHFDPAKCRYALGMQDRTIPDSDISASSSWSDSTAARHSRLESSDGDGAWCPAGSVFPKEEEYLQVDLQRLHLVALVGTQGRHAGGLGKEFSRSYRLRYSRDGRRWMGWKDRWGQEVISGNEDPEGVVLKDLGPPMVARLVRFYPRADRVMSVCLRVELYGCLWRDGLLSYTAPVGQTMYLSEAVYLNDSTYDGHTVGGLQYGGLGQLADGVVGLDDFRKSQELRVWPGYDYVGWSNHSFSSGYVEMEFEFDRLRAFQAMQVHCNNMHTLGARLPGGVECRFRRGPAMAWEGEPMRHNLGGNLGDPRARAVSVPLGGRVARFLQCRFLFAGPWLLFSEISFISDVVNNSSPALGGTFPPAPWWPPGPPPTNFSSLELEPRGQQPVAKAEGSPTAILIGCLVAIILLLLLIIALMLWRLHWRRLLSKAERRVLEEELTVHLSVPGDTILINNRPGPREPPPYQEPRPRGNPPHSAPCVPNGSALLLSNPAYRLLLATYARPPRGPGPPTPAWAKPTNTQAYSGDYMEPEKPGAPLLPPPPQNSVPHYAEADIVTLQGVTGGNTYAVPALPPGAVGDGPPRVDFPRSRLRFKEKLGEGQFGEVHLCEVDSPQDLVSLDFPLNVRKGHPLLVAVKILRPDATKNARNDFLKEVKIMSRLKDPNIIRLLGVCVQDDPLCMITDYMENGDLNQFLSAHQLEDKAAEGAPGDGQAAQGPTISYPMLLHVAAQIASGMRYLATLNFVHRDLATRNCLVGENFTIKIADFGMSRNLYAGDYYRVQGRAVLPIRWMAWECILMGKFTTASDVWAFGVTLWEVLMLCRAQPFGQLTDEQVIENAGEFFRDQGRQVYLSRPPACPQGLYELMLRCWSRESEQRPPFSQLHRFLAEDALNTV
T6 sequence (Q8N5S9 whole entry): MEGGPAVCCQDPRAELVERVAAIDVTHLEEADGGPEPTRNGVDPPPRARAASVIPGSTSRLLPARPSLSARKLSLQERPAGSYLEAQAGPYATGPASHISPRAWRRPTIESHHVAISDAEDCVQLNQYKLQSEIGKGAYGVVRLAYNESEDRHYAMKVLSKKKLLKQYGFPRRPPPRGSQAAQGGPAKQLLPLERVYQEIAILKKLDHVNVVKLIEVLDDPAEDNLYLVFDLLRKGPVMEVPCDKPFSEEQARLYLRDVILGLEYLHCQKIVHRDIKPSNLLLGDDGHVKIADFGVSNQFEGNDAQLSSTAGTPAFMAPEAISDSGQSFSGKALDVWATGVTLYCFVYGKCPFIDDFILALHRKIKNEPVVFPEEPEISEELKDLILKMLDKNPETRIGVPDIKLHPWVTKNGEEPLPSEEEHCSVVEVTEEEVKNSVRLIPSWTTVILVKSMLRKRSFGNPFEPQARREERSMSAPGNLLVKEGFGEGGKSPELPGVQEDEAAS
T2 sequence (O75116 whole entry): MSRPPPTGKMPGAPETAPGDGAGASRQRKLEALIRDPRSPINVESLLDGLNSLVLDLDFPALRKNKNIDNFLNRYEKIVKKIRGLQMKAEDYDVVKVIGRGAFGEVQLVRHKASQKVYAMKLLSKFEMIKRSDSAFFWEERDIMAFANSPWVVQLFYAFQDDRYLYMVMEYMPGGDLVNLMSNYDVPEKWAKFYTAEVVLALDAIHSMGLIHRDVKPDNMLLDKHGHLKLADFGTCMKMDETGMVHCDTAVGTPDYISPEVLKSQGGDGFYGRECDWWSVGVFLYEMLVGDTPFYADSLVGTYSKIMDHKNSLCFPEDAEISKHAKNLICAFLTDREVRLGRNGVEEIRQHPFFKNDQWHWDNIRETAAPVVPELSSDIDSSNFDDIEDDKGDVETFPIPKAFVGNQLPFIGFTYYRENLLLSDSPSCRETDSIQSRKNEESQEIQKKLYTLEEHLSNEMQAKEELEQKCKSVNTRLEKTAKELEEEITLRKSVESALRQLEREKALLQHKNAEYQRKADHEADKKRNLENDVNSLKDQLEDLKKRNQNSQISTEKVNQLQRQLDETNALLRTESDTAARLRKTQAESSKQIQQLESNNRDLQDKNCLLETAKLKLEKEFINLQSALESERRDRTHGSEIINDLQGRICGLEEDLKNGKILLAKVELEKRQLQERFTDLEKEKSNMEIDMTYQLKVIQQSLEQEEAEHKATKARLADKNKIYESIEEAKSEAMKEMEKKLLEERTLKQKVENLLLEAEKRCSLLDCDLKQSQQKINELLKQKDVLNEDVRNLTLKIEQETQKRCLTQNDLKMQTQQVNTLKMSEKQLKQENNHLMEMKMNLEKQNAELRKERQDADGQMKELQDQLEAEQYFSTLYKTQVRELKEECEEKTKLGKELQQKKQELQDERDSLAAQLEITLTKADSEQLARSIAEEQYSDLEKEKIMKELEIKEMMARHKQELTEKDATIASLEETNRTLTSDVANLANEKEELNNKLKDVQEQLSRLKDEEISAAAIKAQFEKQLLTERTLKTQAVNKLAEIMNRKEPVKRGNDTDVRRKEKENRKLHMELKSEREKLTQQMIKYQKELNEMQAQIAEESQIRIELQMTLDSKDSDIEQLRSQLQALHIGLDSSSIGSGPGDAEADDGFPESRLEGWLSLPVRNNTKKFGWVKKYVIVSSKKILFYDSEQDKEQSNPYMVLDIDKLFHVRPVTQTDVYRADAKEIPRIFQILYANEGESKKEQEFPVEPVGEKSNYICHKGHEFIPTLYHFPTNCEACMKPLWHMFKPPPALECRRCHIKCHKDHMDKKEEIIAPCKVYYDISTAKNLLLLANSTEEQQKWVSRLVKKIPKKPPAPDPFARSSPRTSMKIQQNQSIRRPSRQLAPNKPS
T7 sequence (Q9HBH9 whole entry): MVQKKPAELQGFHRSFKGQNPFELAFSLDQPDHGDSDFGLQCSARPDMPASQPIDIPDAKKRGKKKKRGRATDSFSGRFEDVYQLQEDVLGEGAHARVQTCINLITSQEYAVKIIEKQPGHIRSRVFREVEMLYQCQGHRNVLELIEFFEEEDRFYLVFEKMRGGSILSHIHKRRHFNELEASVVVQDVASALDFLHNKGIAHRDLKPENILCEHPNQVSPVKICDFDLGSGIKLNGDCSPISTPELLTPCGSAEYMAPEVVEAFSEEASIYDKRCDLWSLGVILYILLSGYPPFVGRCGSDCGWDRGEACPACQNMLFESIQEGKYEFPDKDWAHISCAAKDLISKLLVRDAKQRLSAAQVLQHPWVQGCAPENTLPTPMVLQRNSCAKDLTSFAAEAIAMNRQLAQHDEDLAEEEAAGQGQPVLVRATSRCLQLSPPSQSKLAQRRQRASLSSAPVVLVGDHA
T1 sequence (Q13464 whole entry): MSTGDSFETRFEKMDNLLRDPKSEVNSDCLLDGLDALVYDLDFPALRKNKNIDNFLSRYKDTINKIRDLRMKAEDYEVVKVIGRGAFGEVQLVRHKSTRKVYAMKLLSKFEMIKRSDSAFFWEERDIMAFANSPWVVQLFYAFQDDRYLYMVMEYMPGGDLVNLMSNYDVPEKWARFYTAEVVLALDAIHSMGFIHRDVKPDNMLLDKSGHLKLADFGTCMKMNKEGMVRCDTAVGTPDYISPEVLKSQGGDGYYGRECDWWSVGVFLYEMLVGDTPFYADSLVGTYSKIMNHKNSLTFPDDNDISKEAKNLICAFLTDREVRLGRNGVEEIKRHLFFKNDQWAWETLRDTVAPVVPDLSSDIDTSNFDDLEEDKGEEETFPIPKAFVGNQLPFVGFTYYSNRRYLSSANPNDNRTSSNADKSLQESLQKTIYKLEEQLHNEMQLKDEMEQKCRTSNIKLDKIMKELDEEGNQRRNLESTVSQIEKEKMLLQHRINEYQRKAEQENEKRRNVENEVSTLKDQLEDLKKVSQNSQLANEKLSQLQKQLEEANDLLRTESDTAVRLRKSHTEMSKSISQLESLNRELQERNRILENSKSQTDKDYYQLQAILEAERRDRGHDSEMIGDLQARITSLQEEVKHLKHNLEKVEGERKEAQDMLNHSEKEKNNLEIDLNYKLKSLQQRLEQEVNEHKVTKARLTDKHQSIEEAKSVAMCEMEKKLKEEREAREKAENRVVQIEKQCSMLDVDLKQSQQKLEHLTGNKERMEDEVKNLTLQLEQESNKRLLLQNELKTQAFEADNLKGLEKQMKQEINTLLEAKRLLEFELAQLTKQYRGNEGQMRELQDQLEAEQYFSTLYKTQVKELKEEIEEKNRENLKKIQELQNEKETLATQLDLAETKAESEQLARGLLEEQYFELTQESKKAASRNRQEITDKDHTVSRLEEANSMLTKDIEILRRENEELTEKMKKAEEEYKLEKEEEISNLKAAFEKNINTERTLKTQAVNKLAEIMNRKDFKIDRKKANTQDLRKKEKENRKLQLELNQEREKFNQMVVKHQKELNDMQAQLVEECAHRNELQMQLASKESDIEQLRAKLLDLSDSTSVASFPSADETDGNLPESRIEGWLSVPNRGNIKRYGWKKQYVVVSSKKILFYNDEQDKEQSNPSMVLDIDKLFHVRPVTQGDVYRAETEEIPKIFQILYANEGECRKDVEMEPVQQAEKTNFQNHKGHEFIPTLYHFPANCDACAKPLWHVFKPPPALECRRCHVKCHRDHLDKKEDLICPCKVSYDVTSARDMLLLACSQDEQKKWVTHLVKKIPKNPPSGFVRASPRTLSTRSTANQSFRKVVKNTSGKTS

Compound: C/C=C(/C)C(=O)O[C@H]1Cc2cc3ccc(=O)oc3cc2OC1(C)C [DA, decursinol angelate]
- pIC50 [1]: 4.89
- pIC50 [2, 14]: 4.74
- pIC50 [2, 15]: 4.80 and 4.70
- pIC50 [3, 16]: 4.64
- pIC50 [3, 15]: 4.66
- pIC50 [4]: < 4.00
- pIC50 [5]: < 4.00
- pIC50 [6]: < 4.00
- pIC50 [7]: < 4.00
- pKd [8, 17]: 5.68
- pKd [8, 18]: 5.72 and 5.64
- pKd [9, 19]: 5.25
- pKd [9, 18]: 5.27 and 5.24
- pKd [10]: < 4.30
- pKd [11]: < 4.30
- pIC50 ([12]; antagonist/degrader): ~5.30
- mode of action on AR and ERα [12]: antagonists/degraders
- inhibitory activity on MAO-B [13]: lacked any inhibitory activity

Compound: CC1(C)Oc2cc3oc(=O)ccc3cc2C[C@@H]1O [DOH, decursinol]
- MAO-A initial screen ([1]; at 10 μM): failed the initial screen
- pIC50 [1]: < 5.00
- pIC50 [2, 14]: 4.09
- DOH % Inhibition ([2]; initial screening, DOH 50 µM): 26.6%
- inhibition at 50 µM ([2]; initial screening, DOH 50 µM): 27%
- % Enzyme Activity (relative to DMSO controls) [2, 20]: 72.1%
- remaining activity at 50 µM [2, 21]: 74.7%
- pIC50 [3, 16]: 4.07
- DOH % Inhibition ([3]; initial screening, DOH 50 µM): 43.2%
- inhibition at 50 µM ([3]; initial screening, DOH 50 µM): 43%
- % Enzyme Activity (relative to DMSO controls) [3, 20]: 56.1%
- remaining activity at 50 µM [3, 21]: 57.5%
- inhibition at 50 µM ([4]; initial screening, DOH 50 µM): 49%
- % Enzyme Activity (relative to DMSO controls) [4, 20]: 49.7%
- remaining activity at 50 µM [4, 21]: 52.3%
- pIC50 [4]: < 4.00
- inhibition at 50 µM ([5]; initial screening, DOH 50 µM): 39.7%
- % Enzyme Activity (relative to DMSO controls) [5, 20]: 59.8%
- remaining activity at 50 µM [5, 21]: 60.8%
- pIC50 [5]: < 4.00
- inhibition at 50 µM ([6]; initial screening, DOH 50 µM): 46.8%
- % Enzyme Activity (relative to DMSO controls) [6, 20]: 52.6%
- remaining activity at 50 µM [6, 21]: 53.8%
- pIC50 [6]: < 4.00
- inhibition at 50 µM ([7]; initial screening, DOH 50 µM): 40.3%
- % Enzyme Activity (relative to DMSO controls) [7, 20]: 59.3%
- remaining activity at 50 µM [7, 21]: 60.1%
- pIC50 [7]: < 4.00
- pKd [8, 17]: 5.12
- remaining binding at 50 µM [8, 22]: 12%
- pKd [8, 18]: 5.14 and 5.12
- pKd [9, 19]: 4.84
- remaining binding at 50 µM [9, 22]: 21%
- pKd [9, 18]: 4.85 and 4.82
- remaining binding at 50 µM [10, 22]: 25%
- pKd [10]: 4.70 and 4.60
- remaining binding at 50 µM [11, 22]: 24%
- pKd [11]: 4.68 and 4.66
- pEC50 ([12]; read-out: AR, ERα agonist EC50): ~5.00
- mode of action on AR and ERα [12]: weak partial agonist activity
- inhibitory activity on MAO-B [13]: lacked any inhibitory activity
